Active and inactive are the calls of the source. No cut-off for these calls is given here.
Key:
[1] = test system: KCL-22; test: Inhibition of cell expansion in human KCL22 cells at 10 nM incubated for 48 hrs by trypan blue dye exclusion counting method; format: functional, cell-based
[2] = test system: KCL-22; test: Inhibition of cell expansion in human KCL22 cells assessed as combination index at 3 uM incubated for 48 hrs in presence of 10 nM nilotinib by trypan blue dye exclusion counting method; format: functional
[3] = test system: KCL-22; test: Inhibition of cell expansion in human KCL22 cells at 3 uM incubated for 48 hrs in presence of 10 nM nilotinib by trypan blue dye exclusion counting method; format: functional, cell-based
[4] = test system: KCL-22; test: Induction of cell cycle arrest in human KCL22 cells assessed as accumulation at S phase at 3 uM incubated for 72 hrs by propidium iodide staining based flow cytometry analysis (reference value: 23.7%); format: functional
[5] = species on record: Homo sapiens; test: Binding affinity to E2F1 consensus sequence DNA in human KCL22 cells assessed as reduction in PET112L gene expression at 3 uM incubated for 24 hrs by RT-qPCR analysis relative to control; format: cell-based
[6] = species on record: Homo sapiens; test: Binding affinity to E2F1 consensus sequence DNA in human KCL22 cells assessed as reduction in SF3B4 gene expression at 3 uM incubated for 24 hrs by RT-qPCR analysis relative to control; format: cell-based
[7] = species on record: Homo sapiens; test: Binding affinity to E2F1 consensus sequence DNA in human KCL22 cells assessed as reduction in GNA13 gene expression at 3 uM incubated for 24 hrs by RT-qPCR analysis relative to control; format: cell-based
[8] = species on record: Homo sapiens; test: Binding affinity to E2F1 consensus sequence DNA in human KCL22 cells assessed as reduction in MCM2 gene expression at 3 uM incubated for 24 hrs by RT-qPCR analysis relative to control; format: cell-based
[9] = test system: KCL-22; test: Up-regulation of RARS2 gene expression in human KCL22 cells at 3 uM incubated for 24 hrs by RT-qPCR analysis relative to control; format: functional, cell-based
[10] = test system: KCL-22; test: Induction of cell cycle arrest in human KCL22 cells assessed as accumulation at subG0 phase at 3 uM incubated for 72 hrs by propidium iodide staining based flow cytometry analysis (reference value: 3.91%); format: functional
[11] = species on record: Homo sapiens; test: Binding affinity to E2F1 consensus sequence DNA in human KCL22 cells assessed as reduction in MRRF gene expression at 3 uM incubated for 24 hrs by RT-qPCR analysis relative to control; format: cell-based
[12] = test system: KCL-22; test: Induction of cell cycle arrest in human KCL22 cells assessed as accumulation at G2-M phase at 3 uM incubated for 72 hrs by propidium iodide staining based flow cytometry analysis (reference value: 14%); format: functional
[13] = test system: KCL-22; test: Up-regulation of TRIM45 gene expression in human KCL22 cells at 3 uM incubated for 24 hrs by RT-qPCR analysis relative to control; format: functional, cell-based
[14] = species on record: Homo sapiens; test: Binding affinity to E2F1 consensus sequence DNA in human KCL22 cells assessed as reduction in PSMB8 gene expression at 3 uM incubated for 24 hrs by RT-qPCR analysis relative to control; format: cell-based
[15] = test system: KCL-22; test: Induction of cell cycle arrest in human KCL22 cells assessed as accumulation at G0-G1 phase at 3 uM incubated for 72 hrs by propidium iodide staining based flow cytometry analysis (reference value: 57.4%); format: functional
[16] = test system: KCL-22; test: Inhibition of cell expansion in human KCL22 cells at 0.3 to 3 uM incubated for 48 hrs by trypan blue dye exclusion counting method; format: functional, cell-based
[17] = species on record: Homo sapiens; test: Binding affinity to E2F1 consensus sequence DNA in human KCL22 cells assessed as reduction in ZNF354B gene expression at 3 uM incubated for 24 hrs by RT-qPCR analysis relative to control; format: cell-based

Row | SMILES | inhibition [1] | CI [2] | inhibition [3] | Activity [4] [%] | Activity [5] | Activity [6] | Activity [7] | Activity [8] | Activity [9] | Activity [10] [%] | Activity [11] | Activity [12] [%] | Activity [13] | Activity [14] | Activity [15] [%] | inhibition [16] | Activity [17]
1 | Cc1cn(-c2cc(NC(=O)c3ccc(C)c(Nc4nccc(-c5cccnc5)n4)c3)cc(C(F)(F)F)c2)cn1 | Active | – | – | – | – | – | – | – | – | – | – | – | – | – | – | – | –
2 | CN(C)CCCNC(=O)c1cc(NC(=O)c2cc(NC(=O)c3cc(NC(=O)c4cc(NC(=O)[C@H](N)CCNC(=O)c5nc(NC(=O)c6nc(NC(=O)c7cc(NC(=O)c8nccn8C)cn7C)cn6C)cn5C)cn4C)cn3C)cn2C)cn1C | – | >1 | Active | 26.4 | Active | Active | Active | Active | Active | 3.84 | Active | 10.8 | Active | Active | 58.1 | Active | Active
